Assay results: ChEMBL document CHEMBL5674860, “Optimized Dual-Glo Assay to identify co-culture-induced drug vulnerabilities in 3D CRC models” (2024)

Key:
Type in all cases: functional, Homo sapiens
Set-up in all cases: dose or concentration left out as unconfirmed
[1] = system: Colon cancer organoid; experiment: Optimized Dual-Glo assay to identify co-culture induced drug vulnerabilities using donated chemical probes and chemogenomics kinase set in O06 CRC organoid and F06 CAF mono and co-culture. […] Cell viability is reported both mono and co-culture models.
[2] = system: Colon cancer organoid; experiment: Optimized Dual-Glo assay to identify co-culture induced drug vulnerabilities using donated chemical probes and chemogenomics kinase set in O14 CRC organoid and F14 CAF mono and co-culture. […] Cell viability is reported both mono and co-culture models.
[3] = system: Colon cancer organoid; experiment: Optimized Dual-Glo assay to identify co-culture induced drug vulnerabilities using donated chemical probes and chemogenomics kinase set in O20 CRC organoid and F20 CAF mono and co-culture. […] Cell viability is reported both mono and co-culture models.
[4] = Culture type Co-Culture, Transduced with Lucferase2-P2A-EGFP lentivirus
[5] = Culture type Co-Culture, Transduced with Renilla-dsRed lentivirus
[6] = Culture type Mono-Culture, Transduced with Lucferase2-P2A-EGFP lentivirus
[7] = Culture type Mono-Culture, Transduced with Renilla-dsRed lentivirus

Structure (SMILES)	Cell Viability [1, 4]	Cell Viability [1, 5]	Cell Viability [1, 6]	Cell Viability [1, 7]	Cell Viability [2, 4]	Cell Viability [2, 5]	Cell Viability [2, 6]	Cell Viability [2, 7]	Cell Viability [3, 4]	Cell Viability [3, 5]	Cell Viability [3, 6]	Cell Viability [3, 7]
COc1ccc2c(O[C@@H]3C[C@H]4C(=O)N[C@]5(C(=O)O)CC5/C=C\CCCCC[C@H](NC(=O)OC5CCCC5)C(=O)N4C3)cc(-c3csc(NC(=O)C(C)C)n3)nc2c1C (some centres not stated) [BI 1230]	113.549%	148.301%	94.169%	100.65%	105.071%	113.929%	106.581%	104.774%	95.5192%	162.279%	102.506%	120.15%
C[C@@H]1CCN(C(=O)CC#N)C[C@@H]1N(C)c1ncnc2[nH]ccc12.O=C(O)CC(O)(CC(=O)O)C(=O)O [TOFACITINIB CITRATE]	105.115%	91.9737%	115.164%	114.62%	119.294%	99.6774%	102.323%	98.8919%	115.032%	86.9545%	89.5356%	81.856%
Cc1ccc(NC(=O)Nc2cc(C(F)(F)F)ccc2F)cc1Nc1ccc2c(c1)NC(=O)/C2=C\c1ccc[nH]1	112.777%	121.077%	144.763%	85.6075%	100.84%	80.7866%	148.906%	94.1932%	98.8429%	67.3177%	149.041%	99.6693%
Cc1cc2c(-c3ccco3)cnc(N[C@H]3CCN(C)C[C@@H]3C(=O)NC3CCCCC3)c2[nH]c1=O [GSK791]	113.813%	153.556%	183.923%	92.8694%	95.0265%	100.863%	120.55%	112.529%	101.755%	116.18%	85.6153%	75.9377%
Cc1cc(F)c(C(=O)Nc2cccc(-c3nncn3C(C)C)n2)cc1-n1cnc(C2CC2)c1 [SELONSERTIB]	89.6649%	105.018%	105.834%	92.1767%	131.466%	127.666%	127.2%	83.0493%	141.674%	89.2485%	97.5113%	87.9562%
O=C(N1CCS(=O)(=O)CC1)N1C[C@H](c2ccc(OC(F)(F)F)cc2)C[C@H](c2nc(C3CC3)no2)C1 [BAY-386]	131.392%	144.172%	106.882%	101.013%	116.117%	119.771%	94.8331%	98.6833%	61.9652%	114.29%	99.9064%	89.9943%
